Laboratory results published in patent US20040185457A1, “Method for detecting dna polymerisation” (priority 2001, published 2004).

Legend:
Assay type in all cases: biochemical
[1] = biological target: T1, Photinus pyralis luciferase (Photinus pyralis, UniProt P08659); assay: Bioluminescence of nucleotides with firefly luciferase in pyrophosphate assay buffer (ELIDA reagent); conditions: for wavelength of maximal light emission: pH 7.8
T1 construct: purchased Promega
Procedure: Pyrophosphate assay buffer (PAB) was made up as follows:
50 μl of PAB was aliquoted into two wells of a 96 well plate. To one sample was added 1 μl of 0.1 mM sodium pyrophosphate; to the other was added 1 μl of 2 mM dATP. The resulting light emission was observed using a Syngene light-box with a black and white CCD camera integrating the signal over 5 seconds. […] The amount of dATP added is equivalent to ⅕ the amount used in a standard 50 μl PCR reaction.
A green filter was placed in front of the lens of the CCD camera and the sample above was observed once more.

[2] = biological target: T2, Taq polymerase (Thermus aquaticus, UniProt P19821); assay: PCR using the dATP analogue, product seen by agarose gel electrophoresis
T2 construct: purchased Roche
T2 sequence (P19821 whole entry): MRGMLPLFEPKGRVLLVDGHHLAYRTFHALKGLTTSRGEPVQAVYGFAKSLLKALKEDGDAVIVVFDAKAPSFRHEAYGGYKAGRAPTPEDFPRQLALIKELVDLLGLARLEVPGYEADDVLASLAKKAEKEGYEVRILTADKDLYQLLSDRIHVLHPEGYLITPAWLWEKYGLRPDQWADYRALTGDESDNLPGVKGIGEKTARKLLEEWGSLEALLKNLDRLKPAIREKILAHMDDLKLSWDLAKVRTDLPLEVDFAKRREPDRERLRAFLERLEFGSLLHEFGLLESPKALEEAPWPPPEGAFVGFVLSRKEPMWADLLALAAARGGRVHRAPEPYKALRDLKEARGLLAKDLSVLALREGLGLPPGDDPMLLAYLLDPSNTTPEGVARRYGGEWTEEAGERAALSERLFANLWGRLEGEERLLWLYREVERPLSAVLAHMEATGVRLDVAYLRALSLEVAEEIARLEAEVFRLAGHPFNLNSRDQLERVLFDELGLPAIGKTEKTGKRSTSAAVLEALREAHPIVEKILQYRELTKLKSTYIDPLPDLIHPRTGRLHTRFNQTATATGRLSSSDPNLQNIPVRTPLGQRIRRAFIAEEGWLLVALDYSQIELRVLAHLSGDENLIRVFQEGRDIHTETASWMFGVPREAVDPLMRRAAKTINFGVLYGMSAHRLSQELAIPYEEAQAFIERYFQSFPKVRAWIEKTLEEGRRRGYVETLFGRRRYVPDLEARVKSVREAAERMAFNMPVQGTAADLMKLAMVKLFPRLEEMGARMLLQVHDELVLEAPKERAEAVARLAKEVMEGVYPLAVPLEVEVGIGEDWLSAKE
Procedure: A 50 μl PCR reaction contained the following:
The sequences of primers 1 and 2 and the test plasmid are given in SEQ ID Nos. 1, 2 and 3, respectively. The size of the expected PCR product was 158 bp.
Taq polymerase was added to the sample after heating to 95° for 30 seconds. The following cycling parameters were implemented on a Perkin-Elmer GeneAmp PCR system 2400.
10 μl of the resulting PCR reaction was loaded onto a […] containing ethidium bromide alongside a molecular weight marker. The gel was run at 60V for 50 minutes and then visualised under a transilluminator.

[3] = biological target: T3, luciferase (Photinus pyralis, UniProt P08659); assay: Stability of light emission from ELIDA assays of PCR reactions; conditions: four consecutive readings over 1 minute; for light emission over time: 5 and 35 cycle PCR samples
T3 sequence (P08659 whole entry): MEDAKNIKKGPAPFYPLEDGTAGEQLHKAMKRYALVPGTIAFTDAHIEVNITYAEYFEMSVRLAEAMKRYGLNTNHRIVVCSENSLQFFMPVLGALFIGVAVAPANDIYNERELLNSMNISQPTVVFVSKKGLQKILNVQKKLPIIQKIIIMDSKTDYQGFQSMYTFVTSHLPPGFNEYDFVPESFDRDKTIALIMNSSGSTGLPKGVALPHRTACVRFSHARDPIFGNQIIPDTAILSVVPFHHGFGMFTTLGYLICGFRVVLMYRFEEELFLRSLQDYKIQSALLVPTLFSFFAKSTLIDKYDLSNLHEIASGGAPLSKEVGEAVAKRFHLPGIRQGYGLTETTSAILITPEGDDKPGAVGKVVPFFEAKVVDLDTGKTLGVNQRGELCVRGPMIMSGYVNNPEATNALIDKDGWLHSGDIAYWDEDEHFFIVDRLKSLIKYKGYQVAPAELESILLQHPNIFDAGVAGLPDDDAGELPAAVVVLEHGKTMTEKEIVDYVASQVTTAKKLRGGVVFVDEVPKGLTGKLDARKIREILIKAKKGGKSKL
Procedure: PCR reactions were set up and run as in Example 5. The analysis of each PCR sample was initiated by mixing 1 μl of the PCR reaction with 20 μl of ELIDA assay buffer. The light emitted from the sample was then measured with a Labsystems Luminoscan Ascent luminometer in a series of four consecutive light readings over a period of 1 minute. Each light reading represented the light emission from the sample integrated over a ten-second interval (using the machine's default PMT voltage).
This effect becomes greater with the number of PCR cycles. […] As a result, the magnitude of the differential between the readings for 5 and 35 cycles over the four readings taken, is almost constant (only 5% difference).

[4] = biological target: T3, luciferase; assay: Signal:background ratio in ELIDA assays of PCR reactions; conditions: unreacted PCR mix vs 30 cycles, compared to dATP
Procedure: PCR reactions were set up as in Example 2 except that only 0.5 pg of the test plasmid pPw601 a was used. Further, the PCR reactions contained either d-α-SATP or dATP. The light emission from an ELIDA assay of unreacted PCR mixes containing either d-α-SATP or dATP was measured as in Example 6. A further ELIDA assay was performed on the same samples after they had completed 30 cycles of a PCR reaction (and had produced the same amount of amplicon as judged by agarose gel analysis). The ratio of the light emission from the unreacted PCR mix to the reacted PCR mix is shown in FIG. 3 (showing signal:background ratio).

T1 sequence (P08659 whole entry): as above

SMILES | wavelength of maximal light emission [1] [nm] | substrate quality for luciferase relative to dATP ([1]; direct reaction with luciferase) | PCR product generated (gel) ([2]; used instead of dATP, 30 cycles) | difference in the differential between the readings for 5 and 35 cycles over the four readings [3] [%] | light emission over time [3] | signal:background ratio [4] | light emission on addition to pyrophosphate assay buffer ([1]; 1 μl of 2 mM in 50 μl PAB, CCD camera, 5 seconds) | PCR product generated (gel) ([2]; 1/10th the usual concentration of 0.2 mM)
Nc1ncnc2c1ncn2[C@@H]1O[C@H](COP(=O)(O)OP(=O)(O)OP(=O)(O)O)[C@@H](O)[C@H]1O [ATP] | 550 |  |  |  |  |  |  | 
Nc1ncnc2c1ncn2[C@H]1C[C@H](O)[C@@H](COP(O)(=S)OP(=O)(O)OP(=O)(O)O)O1 (stereo partly drawn) [d-α-SATP] |  | approximately one-hundred-fold poorer substrate for luciferase than dATP | a PCR product is generated | 5 | close to constant | considerably improves the signal:background ratio |  | 
Nc1ncnc2c1ncn2[C@H]1C[C@H](O)[C@@H](COP(=O)(O)OP(=O)(O)OP(=O)(O)O)O1 [dATP] | 620 |  |  |  | significant decay in light emission over time |  | significant light emission | no PCR product is detected
